From patent US10479795B2 (Incyte Corporation, priority 2016, dated 2019) come the findings set out here.

pIC50: −log10 of the molar value. Counter-ions that a name gives are not always drawn.

Test [1] addresses PI3Kγ (p110γ) Recombinant Human Protein (Homo sapiens (Human), UniProt P48736). The experiment in a line: PI3K-γ Scintillation Proximity Assay. The format is biochemical. Particulars: read-out: PI3Kγ IC50. In outline: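 Recombinant human p110γ assayed at room temperature in 20 mM MOPS pH 6.7, 10 mM MgCl2, 5 mM DTT, 0.03% CHAPS, 2% DMSO, with 20 μM PIP2 and 2 μM ATP plus [γ-33P]ATP. Product captured on WGA SPA beads overnight and counted; IC50 fitted from % of solvent-control activity versus log inhibitor concentration.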
Background: Scintillation proximity formats need no separation of bound from free tracer.

Test [2] deals with PI3Kδ (p110δ/p85α) Recombinant Human Protein (Homo sapiens (Human), UniProt O00329). The experiment in a line: PI3Kδ Scintillation Proximity Assay. In kind it is biochemical. In outline:
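Recombinant human p110δ/p85α (3.4 nM) phosphorylates 20 μM di-octanoyl PIP2 using 2 μM ATP spiked with [γ-33P]ATP, 120 min, room temperature, pH 6.7, 2% DMSO. Product measured by scintillation proximity; IC50 from dose-response fit.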

Test [3] has as its system Phosphorylated Ribosomal Protein S6 (RPS6). The experiment in a line: THP-1 RPS6 ELISA Assay. Particulars: Homo sapiens; THP-1 cells; read-out: PI3Kγ_THP1_RPS6_ELISA IC50. In kind it is cell-based, Human. In outline:
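Serum-starved THP-1 cells were preincubated with a concentration range of compound for 2 h at 37 °C, then stimulated with 10 nM MCP-1 for 15 min. Phospho-RPS6 in lysates was quantified by ELISA at 450 nm. IC50 came from percent inhibition versus log inhibitor concentration.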
(In an ELISA, binding on a coated surface is turned into a signal by an enzyme label.)

Chain of PI3Kδ (p110δ/p85α) Recombinant Human Protein (O00329 whole entry): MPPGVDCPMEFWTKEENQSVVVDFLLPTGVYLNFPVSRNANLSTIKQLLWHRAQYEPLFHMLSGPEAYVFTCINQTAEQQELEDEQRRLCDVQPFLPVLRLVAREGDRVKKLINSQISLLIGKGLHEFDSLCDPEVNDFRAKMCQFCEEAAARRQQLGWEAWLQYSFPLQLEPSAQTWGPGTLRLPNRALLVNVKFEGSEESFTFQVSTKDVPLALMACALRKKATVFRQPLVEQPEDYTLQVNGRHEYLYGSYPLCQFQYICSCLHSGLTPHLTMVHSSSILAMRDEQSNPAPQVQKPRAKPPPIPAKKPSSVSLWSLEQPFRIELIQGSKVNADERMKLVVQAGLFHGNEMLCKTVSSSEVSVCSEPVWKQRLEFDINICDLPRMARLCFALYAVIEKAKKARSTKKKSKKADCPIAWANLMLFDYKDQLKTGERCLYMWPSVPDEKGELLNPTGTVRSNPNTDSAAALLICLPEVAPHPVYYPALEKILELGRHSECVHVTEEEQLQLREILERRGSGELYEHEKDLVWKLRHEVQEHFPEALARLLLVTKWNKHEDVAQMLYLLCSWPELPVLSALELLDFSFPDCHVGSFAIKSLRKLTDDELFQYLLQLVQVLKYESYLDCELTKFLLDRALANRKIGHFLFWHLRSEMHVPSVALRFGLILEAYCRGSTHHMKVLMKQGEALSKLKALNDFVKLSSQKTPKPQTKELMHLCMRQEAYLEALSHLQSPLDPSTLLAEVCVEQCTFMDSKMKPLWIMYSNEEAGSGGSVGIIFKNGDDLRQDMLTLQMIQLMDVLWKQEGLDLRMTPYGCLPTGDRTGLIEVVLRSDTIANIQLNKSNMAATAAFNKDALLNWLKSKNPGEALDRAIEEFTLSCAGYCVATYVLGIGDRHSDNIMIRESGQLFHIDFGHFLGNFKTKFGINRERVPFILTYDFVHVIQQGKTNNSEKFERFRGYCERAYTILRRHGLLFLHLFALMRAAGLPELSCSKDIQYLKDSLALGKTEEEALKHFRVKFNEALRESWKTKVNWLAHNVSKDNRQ
Chain of PI3Kδ (p110δ/p85α) Recombinant Human Protein (P27986 whole entry partner): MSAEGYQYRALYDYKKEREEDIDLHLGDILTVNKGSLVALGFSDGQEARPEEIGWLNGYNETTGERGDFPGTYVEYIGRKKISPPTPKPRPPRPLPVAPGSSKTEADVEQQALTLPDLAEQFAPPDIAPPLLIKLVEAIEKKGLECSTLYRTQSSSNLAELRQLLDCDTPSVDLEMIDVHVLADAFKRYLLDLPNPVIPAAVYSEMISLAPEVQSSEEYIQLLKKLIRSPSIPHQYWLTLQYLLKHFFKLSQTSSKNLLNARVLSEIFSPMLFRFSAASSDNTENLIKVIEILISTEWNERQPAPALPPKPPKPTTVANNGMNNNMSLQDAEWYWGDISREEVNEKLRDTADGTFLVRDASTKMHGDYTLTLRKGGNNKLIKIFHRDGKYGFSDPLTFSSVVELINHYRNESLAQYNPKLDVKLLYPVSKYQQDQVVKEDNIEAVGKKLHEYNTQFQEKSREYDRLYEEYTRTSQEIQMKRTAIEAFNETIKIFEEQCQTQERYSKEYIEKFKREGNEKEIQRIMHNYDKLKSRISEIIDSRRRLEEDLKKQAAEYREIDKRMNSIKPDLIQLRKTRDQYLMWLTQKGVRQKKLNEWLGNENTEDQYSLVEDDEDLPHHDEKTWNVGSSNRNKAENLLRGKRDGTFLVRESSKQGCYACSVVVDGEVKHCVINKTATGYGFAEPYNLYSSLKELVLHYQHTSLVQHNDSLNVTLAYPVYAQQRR
Chain of PI3Kγ (p110γ) Recombinant Human Protein (P48736 whole entry): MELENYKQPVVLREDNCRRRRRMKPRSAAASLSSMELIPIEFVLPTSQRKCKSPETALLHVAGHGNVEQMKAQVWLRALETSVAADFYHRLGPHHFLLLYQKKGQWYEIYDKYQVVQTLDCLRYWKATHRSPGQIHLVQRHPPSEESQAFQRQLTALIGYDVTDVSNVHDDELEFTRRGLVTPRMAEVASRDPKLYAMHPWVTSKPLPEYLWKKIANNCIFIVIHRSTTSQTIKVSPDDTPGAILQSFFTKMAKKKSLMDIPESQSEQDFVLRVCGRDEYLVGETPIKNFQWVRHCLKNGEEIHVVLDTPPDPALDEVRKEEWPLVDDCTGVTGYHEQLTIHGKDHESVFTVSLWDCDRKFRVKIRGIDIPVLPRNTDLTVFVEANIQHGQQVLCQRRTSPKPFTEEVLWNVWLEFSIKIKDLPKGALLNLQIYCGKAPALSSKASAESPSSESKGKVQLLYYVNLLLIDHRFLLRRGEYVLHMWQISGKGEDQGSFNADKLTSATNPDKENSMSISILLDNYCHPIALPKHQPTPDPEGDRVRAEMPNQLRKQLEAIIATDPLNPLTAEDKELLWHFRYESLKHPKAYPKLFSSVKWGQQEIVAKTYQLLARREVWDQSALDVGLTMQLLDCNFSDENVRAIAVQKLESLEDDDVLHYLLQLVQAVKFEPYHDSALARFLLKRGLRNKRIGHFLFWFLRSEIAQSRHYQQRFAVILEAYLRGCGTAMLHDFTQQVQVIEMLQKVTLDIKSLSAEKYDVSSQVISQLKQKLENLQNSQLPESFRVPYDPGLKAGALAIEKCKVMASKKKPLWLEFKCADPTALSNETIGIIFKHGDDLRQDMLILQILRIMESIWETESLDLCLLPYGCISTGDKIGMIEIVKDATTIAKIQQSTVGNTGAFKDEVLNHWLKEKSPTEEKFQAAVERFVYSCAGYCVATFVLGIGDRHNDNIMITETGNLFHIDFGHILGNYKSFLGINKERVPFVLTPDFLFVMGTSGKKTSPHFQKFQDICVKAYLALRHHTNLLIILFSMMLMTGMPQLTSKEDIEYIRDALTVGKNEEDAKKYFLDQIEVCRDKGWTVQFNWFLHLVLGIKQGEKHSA

By pIC50 is commonly meant −log10 of the IC50, conventionally taken in molar units. As to `Cc1ccc(S(=O)(=O)N2CC3C(O)C2CN3C2CC(C#N)C2)cc1-c1cnc2c(N)nc(C(F)(F)F)nn12` (stereo not drawn) [Example 354, 3-(5-((3-(4-amino-2-(trifluoromethyl)imidazo[2,1-f][1,2,4]triazin-7-yl)-4-methylphenyl)sulfonyl)-7-hydroxy-2,5-diazabicyclo[2.2.1]heptan-2-yl)cyclobutane-1-carbonitrile], the pIC50 in test [1] is above 7.00; in test [2], 5.70 to 6.30; in test [3], below 6.00.
Regarding `Cc1ccc(S(=O)(=O)NC23CCC(CO)(CC2)OC3)cc1-c1cnc2c(N)ncnn12` [Example 433, 3-(4-Aminoimidazo[1,2-f][1,2,4]triazin-7-yl)-N-(1-(hydroxymethyl)-2-oxabicyclo[2.2.2]octan-4-yl)-4-methylbenzenesulfonamide trifluoroacetate salt], the pIC50 in test [1] was above 7.00; in test [2], 6.30 to 7.00; in test [3] it was 6.30 to 7.00.
With `Cc1ccc(S(=O)(=O)NC23CC(C(C)(C)O)(C2)C3)cc1-c1cnc2c(N)nc(C(F)(F)F)cn12` [Example 282, 3-(8-Amino-6-(trifluoromethyl)imidazo[1,2-a]pyrazin-3-yl)-N-(3-(2-hydroxypropan-2-yl)bicyclo[1.1.1]pentan-1-yl)-4-methylbenzenesulfonamide trifluoroacetate salt], the negative logarithm of the IC50 (pIC50) in test [1] is above 7.00; in test [2], 6.30 to 7.00; in test [3] it was above 7.00.
Turning to `Cc1cn2c(-c3cc(S(=O)(=O)N[C@@H]4CC[C@@H](C(C)(C)O)OC4)c(C)cc3C)cnc2c(N)n1` [Example 465, 5-(8-Amino-6-methylimidazo[1,2-a]pyrazin-3-yl)-N-((3R,6S)-6-(2-hydroxypropan-2-yl)tetrahydro-2H-pyran-3-yl)-2,4-dimethylbenzenesulfonamide], the values for the pIC50 in test [1], in test [2] and in test [3] were above 7.00, 5.70 to 6.30 and 6.30 to 7.00, respectively.
For `Cc1ccc(S(=O)(=O)CC(C)O)cc1-c1cnc2c(N)nc(C(F)(F)F)cn12` (stereo not drawn) [Example 496, 1-((3-(8-Amino-6-(trifluoromethyl)imidazo[1,2-a]pyrazin-3-yl)-4-methylphenyl)sulfonyl)propan-2-ol trifluoroacetate] the same measures were above 7.00, 5.70 to 6.30 and 6.00 to 6.30.
With `Cc1ccc(S(=O)(=O)N2CC[C@H](N)C2)cc1-c1cnc2c(N)nc(C(F)(F)F)cn12` [Example 305, (S)-3-(5-((3-aminopyrrolidin-1-yl)sulfonyl)-2-methylphenyl)-6-(trifluoromethyl)imidazo[1,2-a]pyrazin-8-amine bis(trifluoroacetate)], the negative-log IC50 (pIC50) in test [1] is above 7.00; in test [2] it was 6.30 to 7.00; in test [3], below 6.00.
Consider `Cc1ccc(S(=O)(=O)NC2(C#N)CC2)cc1-c1cnc2c(N)ncnn12` [Example 189, 3-(4-aminoimidazo[2,1-f][1,2,4]triazin-7-yl)-N-(1-cyanocyclopropyl)-4-methylbenzenesulfonamide], for which the pIC50 in test [1] was above 7.00; in test [2], 5.70 to 6.30; in test [3], 6.00 to 6.30.
For `Cc1ccc(S(=O)(=O)N[C@H]2CC[C@](C)(O)CC2)cc1-c1cnc2c(N)ncnn12` [Example 463, 3-(4-Aminoimidazo[2,1-f][1,2,4]triazin-7-yl)-N-((1r,4r)-4-hydroxy-4-methylcyclohexyl)-4-methylbenzenesulfonamide] the same measures were above 7.00, 6.30 to 7.00 and 6.30 to 7.00.
For `Cc1ccc(S(=O)(=O)N[C@H]2CC[C@H](O)CC2)cc1-c1cnc2c(N)cc(Cl)cn12` [Example 4, 3-(8-Amino-6-chloroimidazo[1,2-a]pyridin-3-yl)-N-(trans-4-hydroxycyclohexyl)-4-methylbenzenesulfonamide trifluoroacetate] the same measures were above 7.00, 6.30 to 7.00 and above 7.00.
